{"source": "patent US20200315241A1", "about": "(Nude Nicotine, Inc., priority 2017, published 2020)", "key": {"[1]": {"conditions": "cited from earlier work"}, "[2]": {"conditions": "nicotine salt complex"}, "[3]": {"conditions": "free-base nicotine; depending on concentration; cited from earlier work"}, "respiratory tract": {"system": "respiratory tract", "conditions": "user perception, nicotine citrate compared with nicotine hexanoate"}, "[4]": {"conditions": "Table 7, nicotine salt (organic acid)"}, "[5]": {"conditions": "Table 7, nicotine salt (organic acid), second value"}, "[6]": {"conditions": "Table 7, nicotine salt (organic acid), third value printed in the cell"}, "[7]": {"conditions": "Table 5, organic acid, second value"}}, "note": "Where two headings read alike, the source gives them in different places.", "data": [{"molecule": "Nicotine phthalate", "values": [{"measurement": "pKa", "setting": "[1]; [4]", "result": 2.76}, {"measurement": "pKa", "setting": "[1]; [5]", "result": 4.92}]}, {"molecule": "Nicotine cinnamate", "values": [{"measurement": "pKa", "setting": "[1]; [4]", "result": 4.44}]}, {"molecule": "CC(=O)CC(=O)O", "note": "[3-Oxobutanoic Acid (Acetoacetic Acid), 3-Oxobutanoic Acid]", "values": [{"measurement": "pKa", "setting": "[1]; Table 5, organic acid", "result": 3.58}]}, {"molecule": "CN1CCCC1c1cccnc1.O=C(O)CC(O)C(=O)O", "note": "(centres unmarked) [Nicotine malate]", "values": [{"measurement": "pH", "setting": "[2]", "result": "around 6.5"}]}, {"molecule": "CC(=O)C(=O)O", "note": "[Pyruvic Acid]", "values": [{"measurement": "pKa", "setting": "[1]; Table 5, organic acid", "result": 2.50}]}, {"molecule": "CN1CCCC1c1cccnc1", "note": "(centres unmarked) [nicotine]", "values": [{"measurement": "pH", "setting": "[3]", "result": "~10"}]}, {"molecule": "CN1CCCC1c1cccnc1.O=C(O)C(=O)O.O=C(O)CC(O)C(=O)O", "note": "(centres unmarked) [Nicotine N-malate-N′-oxalate]", "values": [{"measurement": "pH", "setting": "[2]", "result": "~5.5"}]}, {"molecule": "CN1CCCC1c1cccnc1.O=C(O)C=C(CC(=O)O)C(=O)O", "note": "(stereo not drawn) [Nicotine trans-aconitate]", "values": [{"measurement": "pKa", "setting": "[1]; [4]", "result": 2.80}, {"measurement": "pKa", "setting": "[1]; [5]", "result": 4.46}]}, {"molecule": "CN1CCCC1c1cccnc1.O=C(O)CC(C(=O)O)C(O)C(=O)O", "note": "(centres unmarked) [Nicotine isocitrate]", "values": [{"measurement": "pKa", "setting": "[1]; [4]", "result": 3.29}, {"measurement": "pKa", "setting": "[1]; [5]", "result": 4.71}, {"measurement": "pKa", "setting": "[1]; [6]", "result": 6.40}]}, {"molecule": "Nicotine glutarate", "values": [{"measurement": "pKa", "setting": "[1]; [4]", "result": 4.34}]}, {"molecule": "Nicotine vanillate", "values": [{"measurement": "pKa", "setting": "[1]; [4]", "result": 4.51}]}, {"molecule": "Nicotine 2-hydroxyisocaproate", "values": [{"measurement": "pKa", "setting": "[1]; [4]", "result": 4.26}]}, {"molecule": "Nicotine 3-hydroxyglutarate", "values": [{"measurement": "pKa", "setting": "[1]; [4]", "result": 3.52}]}, {"molecule": "Nicotine acetylsalicylate", "values": [{"measurement": "pKa", "setting": "[1]; [4]", "result": 3.49}]}, {"molecule": "Nicotine levulinate", "values": [{"measurement": "pKa", "setting": "[1]; [4]", "result": 4.64}, {"measurement": "pKa", "setting": "[1]", "result": 4.64}]}, {"molecule": "Nicotine methioninate", "values": [{"measurement": "pKa", "setting": "[1]; [4]", "result": 2.28}]}, {"molecule": "CN1CCCC1c1cccnc1.NCC(=O)O", "note": "(centres unmarked) [Nicotine glycinate]", "values": [{"measurement": "pKa", "setting": "[1]; [4]", "result": 2.34}]}, {"molecule": "Nicotine isocaproate", "values": [{"measurement": "pKa", "setting": "[1]; [4]", "result": 5.09}]}, {"molecule": "Nicotine valerate", "values": [{"measurement": "pKa", "setting": "[1]; [4]", "result": 4.84}]}, {"molecule": "O=C(O)/C=C(/CC(=O)O)C(=O)O", "note": "[cis-Aconitic Acid]", "values": [{"measurement": "pKa", "setting": "[1]; Table 5, organic acid", "result": 1.95}]}, {"molecule": "CN1CCCC1c1cccnc1.O=C(O)CC(O)(CC(=O)O)C(=O)O", "note": "[Nicotine citrate]", "values": [{"measurement": "throat hit / sensation in the respiratory tract", "setting": "respiratory tract", "result": "stronger throat hit"}]}, {"molecule": "Nicotine pyruvate", "values": [{"measurement": "pKa", "setting": "[1]; [4]", "result": 2.50}]}, {"molecule": "CN1CCCC1c1cccnc1.C[C@H](N)C(=O)O", "note": "(centres unmarked) [Nicotine alanate]", "values": [{"measurement": "pKa", "setting": "[1]; [4]", "result": 2.34}]}, {"molecule": "Nicotine tryptophanate", "values": [{"measurement": "pKa", "setting": "[1]; [4]", "result": 2.83}]}, {"molecule": "CCC(=O)O.CN1CCCC1c1cccnc1", "note": "(centres unmarked) [Nicotine propionate]", "values": [{"measurement": "pH", "setting": "[2]", "result": "~6.5"}]}, {"molecule": "Nicotine cysteinate", "values": [{"measurement": "pKa", "setting": "[1]; [4]", "result": 1.96}]}, {"molecule": "CC(=O)O.CN1CCCC1c1cccnc1", "note": "(centres unmarked) [Nicotine acetate]", "values": [{"measurement": "pH", "setting": "[2]", "result": "~6.5"}]}, {"molecule": "Oxalic Acid", "values": [{"measurement": "pKa", "setting": "[1]; Table 5, organic acid", "result": 1.46}, {"measurement": "pKa", "setting": "[1]; [7]", "result": 4.40}]}, {"molecule": "Nicotine acetoacetate", "values": [{"measurement": "pKa", "setting": "[1]; [4]", "result": 3.58}]}, {"molecule": "O=C(O)C[C@H](C(=O)O)[C@@H](O)C(=O)O", "note": "[Isocitric Acid]", "values": [{"measurement": "pKa", "setting": "[1]; Table 5, organic acid", "result": 3.29}, {"measurement": "pKa", "setting": "[1]; [7]", "result": 4.71}, {"measurement": "pKa", "setting": "[1]; Table 5, organic acid, third value printed in the cell", "result": 6.40}]}, {"molecule": "C#CC(=O)O.CN1CCCC1c1cccnc1", "note": "(centres unmarked) [Nicotine propiolate]", "values": [{"measurement": "pKa", "setting": "[1]; [4]", "result": 1.84}]}, {"molecule": "Nicotine valinate", "values": [{"measurement": "pKa", "setting": "[1]; [4]", "result": 2.32}]}, {"molecule": "Nicotine lysinate", "values": [{"measurement": "pKa", "setting": "[1]; [4]", "result": 2.18}]}, {"molecule": "CN1CCCC1c1cccnc1.O=C(O)c1cc(C(=O)O)cc(C(=O)O)c1", "note": "[Nicotine trimesate]", "values": [{"measurement": "pKa", "setting": "[1]; [4]", "result": 3.12}, {"measurement": "pKa", "setting": "[1]; [5]", "result": 3.89}, {"measurement": "pKa", "setting": "[1]; [6]", "result": 4.70}]}, {"molecule": "Nicotine 4-hydroxybenzoate", "values": [{"measurement": "pKa", "setting": "[1]; [4]", "result": 4.54}]}, {"molecule": "CN1CCCC1c1cccnc1.O=C(O)C=C(CC(=O)O)C(=O)O", "note": "(stereo not drawn) [Nicotine cis-aconitate]", "values": [{"measurement": "pKa", "setting": "[1]; [4]", "result": 1.95}]}, {"molecule": "Nicotine hexanoate", "values": [{"measurement": "pKa", "setting": "[1]; [4]", "result": 4.88}]}, {"molecule": "CN1CCCC1c1cccnc1.N[C@@H](Cc1ccccc1)C(=O)O", "note": "(centres unmarked) [Nicotine phenylalanate]", "values": [{"measurement": "pKa", "setting": "[1]; [4]", "result": 1.83}]}, {"molecule": "Nicotine gluconate", "values": [{"measurement": "pKa", "setting": "[1]; [4]", "result": 3.86}]}, {"molecule": "O=C(O)CC(O)C(=O)O", "note": "(centres unmarked) [Malic Acid]", "values": [{"measurement": "pKa", "setting": "[1]; Table 5, organic acid", "result": 3.51}, {"measurement": "pKa", "setting": "[1]; [7]", "result": 5.03}, {"measurement": "pKa1", "setting": "[1]; pH for binding of second carboxylic acid group", "result": 5.03}]}, {"molecule": "Nicotine asparaginate", "values": [{"measurement": "pKa", "setting": "[1]; [4]", "result": 2.02}]}]}
